Laboratory results: patent US20240067633A1, “KETOHEXOKINASE INHIBITOR AND USE THEREOF” (SICHUAN HAISCO PHARMACEUTICAL CO., LTD., priority 2020, published 2024)

Assays:
[1] = Pharmacokinetic experiment in mice; assay type: in vivo, ICR mice
Experimental: 3.1 Experimental animals: male ICR mice, about 22 g, 6-8 weeks old, 18 mice/compound, purchased from Hunan SJA Laboratory Animal Co., Ltd.
3.2 Experimental design: On the day of the experiment, 18 ICR mice were randomly grouped according to their body weight. The animals were fasted with water available for 12 to 14 h one day before the administration, and were fed 4 h after the administration.
(§1) Vehicle for intravenous administration: 5% DMA+5% Solutol+90% Saline; Vehicle for intragastric administration: 0.5% MC
(§2) Before and after the administration, 0.08 mL of blood was taken from the orbit of the animals under isoflurane anaesthesia and placed in an EDTAK2 centrifuge tube. The blood was centrifuged at 5000 rpm and 4° C. for 10 min to collect plasma. Blood sampling time points for the intravenous administration group: 0, 5 min, 15 min, 30 min, 1 h, 2 h, 4 h, 6 h, 8 h, and 24 h; and blood sampling time points for the intragastric administration group: 0, 5 min, 15 min, 30 min, 1 h, 2 h, 4 h, 6 h, 8 h, and 24 h. Before analysis and detection, all samples were stored at −80° C.

CYP2D6 = CYP2D6 (Homo sapiens (Human), UniProt P10635); test: CYP450 enzyme inhibition test, mixed human liver microsomes; assay type: in vitro ADME; conditions: 0.05-50 μM
Sequence of CYP2D6 (P10635 whole entry): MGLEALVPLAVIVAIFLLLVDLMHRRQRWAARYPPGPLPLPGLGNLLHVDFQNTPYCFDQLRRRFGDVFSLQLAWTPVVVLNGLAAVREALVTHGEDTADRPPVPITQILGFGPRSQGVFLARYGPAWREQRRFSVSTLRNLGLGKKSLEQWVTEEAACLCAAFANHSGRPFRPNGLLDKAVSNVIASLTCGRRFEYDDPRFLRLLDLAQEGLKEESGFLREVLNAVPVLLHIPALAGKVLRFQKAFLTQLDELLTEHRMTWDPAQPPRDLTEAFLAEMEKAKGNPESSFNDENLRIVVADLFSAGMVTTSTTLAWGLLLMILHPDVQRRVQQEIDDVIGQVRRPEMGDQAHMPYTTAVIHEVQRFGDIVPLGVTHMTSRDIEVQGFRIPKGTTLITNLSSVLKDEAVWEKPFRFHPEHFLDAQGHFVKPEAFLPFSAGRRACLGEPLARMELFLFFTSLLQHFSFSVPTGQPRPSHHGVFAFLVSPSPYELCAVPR

[2] = Pharmacokinetic experiment in rats; assay type: in vivo, SD rats
Experimental: 2.1 Experimental animals: Male SD rats, about 220 g, 6-8 weeks old, 6 rats/compound, purchased from Hunan SJA Laboratory Animal Co., Ltd.
2.2 Experimental design: On the day of the experiment, 6 SD rats were randomly grouped according to their body weight. The animals were fasted with water available for 12 to 14 h one day before the administration, and were fed 4 h after the administration.
as §1
as §2, with “0.15” for “0.08”

CYP3A4 = CYP3A4 (Homo sapiens (Human), UniProt P08684); test: CYP450 enzyme inhibition test, mixed human liver microsomes; assay type: in vitro ADME; conditions: 0.05-50 μM
Sequence of CYP3A4 (P08684 whole entry): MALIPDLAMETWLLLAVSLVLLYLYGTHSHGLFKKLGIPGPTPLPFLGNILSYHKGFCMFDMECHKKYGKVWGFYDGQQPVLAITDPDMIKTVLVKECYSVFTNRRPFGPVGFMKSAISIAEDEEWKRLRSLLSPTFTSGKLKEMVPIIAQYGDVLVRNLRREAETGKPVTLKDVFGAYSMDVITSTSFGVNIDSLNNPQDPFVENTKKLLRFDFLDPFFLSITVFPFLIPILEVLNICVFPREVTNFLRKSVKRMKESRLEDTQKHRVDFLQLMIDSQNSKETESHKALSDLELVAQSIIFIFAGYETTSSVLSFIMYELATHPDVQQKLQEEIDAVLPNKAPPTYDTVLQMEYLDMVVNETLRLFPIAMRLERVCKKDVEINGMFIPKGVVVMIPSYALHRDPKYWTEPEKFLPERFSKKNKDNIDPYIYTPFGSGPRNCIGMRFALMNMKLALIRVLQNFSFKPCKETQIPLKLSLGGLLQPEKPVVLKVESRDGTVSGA

hKHK-C = hKHK-C (Homo sapiens (Human), UniProt P50053); test: Experiment of inhibitory activity against KHK in vitro (ADP-glo), hKHKc; assay type: biochemical; conditions: purified hKHK-C, 50 mM fructose, 0.2 mM ATP
Sequence of hKHK-C (P50053 whole entry): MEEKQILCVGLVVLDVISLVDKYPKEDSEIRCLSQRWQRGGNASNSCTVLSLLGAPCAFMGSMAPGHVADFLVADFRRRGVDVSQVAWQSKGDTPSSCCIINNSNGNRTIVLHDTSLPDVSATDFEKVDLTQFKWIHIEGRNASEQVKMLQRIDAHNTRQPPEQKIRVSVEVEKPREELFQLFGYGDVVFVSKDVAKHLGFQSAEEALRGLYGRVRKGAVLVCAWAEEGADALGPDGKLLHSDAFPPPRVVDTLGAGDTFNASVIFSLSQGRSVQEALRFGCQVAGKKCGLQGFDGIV
Experimental: (§3) With the involvement of ATP, fructokinase phosphorylates fructose to produce fructose-1-phosphate and ADP. In this experiment, the effect of the compound on the activity of fructokinase was determined by measuring the amount of ADP produced in the process. Test compound stocks were prepared in DMSO. Before use, the stocks were 3-fold serially diluted with assay buffers (25 mM HEPES, 300 mM KCl, 10 mM MgCl2, 10 mM CaCl2), pH 7.0) to 5-fold the final concentration tested, and the DMSO content was adjusted to 1%. In a 384-well plate, the test compound was added to achieve a final concentration of 7.6 nM to 100 μM (assay buffers containing 1% DMSO were added to background and control wells). 5 ng/μL purified hKHK-C (assay buffers were added to background wells), 50 mM fructose and 0.2 mM ATP were added to reach a total volume of 10 μL and reacted at room temperature for 30 min. After the reaction was completed, 10 μL of ADP-glo (promega) was added and mixed uniformly, and the plate was incubated at room temperature for 40 min. Then the ADP-glo was added again, mixed uniformly and reacted for 40 min. The spontaneous luminescence intensity was measured using an Envision microplate reader. The inhibition rate of the compound against […] was calculated using the following formula,
(§4) [formula] • wherein • RLUZPE=luminescence intensity of control well • RLUblank=luminescence intensity of background well • RLUcpd=luminescence intensity of test compound well
(§5) A curve of inhibition rate (y-axis) versus compound concentration (x-axis) was fitted by logarithmic (inhibitor) and normalized response (variable slope) in GraphPad Prism, and EC50 was calculated.

hKHKa = hKHKa (Homo sapiens (Human), UniProt P50053); test: Experiment of inhibitory activity against KHK in vitro (ADP-glo), hKHKa; assay type: biochemical
Sequence of hKHKa (P50053 other isoform, or with tags, fused parts or gaps): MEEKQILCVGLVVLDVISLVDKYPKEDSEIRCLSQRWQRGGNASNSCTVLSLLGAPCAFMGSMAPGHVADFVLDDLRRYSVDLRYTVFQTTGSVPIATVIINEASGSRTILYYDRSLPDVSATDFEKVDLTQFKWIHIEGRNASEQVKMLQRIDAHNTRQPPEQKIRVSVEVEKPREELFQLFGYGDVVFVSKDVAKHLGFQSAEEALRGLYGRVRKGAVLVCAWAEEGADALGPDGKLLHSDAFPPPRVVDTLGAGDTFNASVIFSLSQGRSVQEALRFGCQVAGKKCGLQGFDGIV
Experimental: [The source words this procedure for another variant and reports this variant under the same test.] as §3, §4, §5

mKHKc = mKHKc (Mus musculus (Mouse), UniProt P97328); test: Experiment of inhibitory activity against KHK in vitro (ADP-glo), mKHKc; assay type: biochemical
Sequence of mKHKc (P97328 whole entry): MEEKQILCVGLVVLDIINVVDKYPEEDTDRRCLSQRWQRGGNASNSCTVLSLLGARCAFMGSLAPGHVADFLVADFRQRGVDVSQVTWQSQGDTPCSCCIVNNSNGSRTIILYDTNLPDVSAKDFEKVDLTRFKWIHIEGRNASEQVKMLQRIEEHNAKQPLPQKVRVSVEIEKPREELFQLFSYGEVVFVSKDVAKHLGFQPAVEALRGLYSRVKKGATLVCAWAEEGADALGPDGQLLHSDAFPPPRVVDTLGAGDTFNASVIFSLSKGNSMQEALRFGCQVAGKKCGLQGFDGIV
Experimental: [The source words this procedure for another species and reports this species under the same test.] as §3, with “5 ng/μL purified hKHK-C (assay buffers were added to background wells), 50 mM fructose and 0.2 mM ATP were added to reach a total volume of 10 μL and reacted at room temperature for 30 min. After the reaction was completed, 10 μL of ADP-glo (promega) was added and mixed uniformly, and the plate was incubated at room temperature for 40 min. Then the ADP-glo was added again, mixed uniformly and reacted for 40 min.” left out
as §4, §5

rKHKc = rKHKc (Rattus norvegicus (Rat), UniProt Q02974); test: Experiment of inhibitory activity against KHK in vitro (ADP-glo), rKHKc; assay type: biochemical
Sequence of rKHKc (Q02974 whole entry): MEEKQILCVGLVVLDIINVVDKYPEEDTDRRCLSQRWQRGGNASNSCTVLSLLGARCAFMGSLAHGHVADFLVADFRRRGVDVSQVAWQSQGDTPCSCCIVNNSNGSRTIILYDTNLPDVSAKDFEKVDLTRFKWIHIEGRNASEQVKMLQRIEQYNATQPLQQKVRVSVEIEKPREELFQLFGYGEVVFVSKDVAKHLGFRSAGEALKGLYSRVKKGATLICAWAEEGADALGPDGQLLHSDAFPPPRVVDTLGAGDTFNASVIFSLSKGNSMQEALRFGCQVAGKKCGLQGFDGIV
Experimental: [The source words this procedure for another species and reports this species under the same test.] as §3, with “5 ng/μL purified hKHK-C (assay buffers were added to background wells), 50 mM fructose and 0.2 mM ATP were added to reach a total volume of 10 μL and reacted at room temperature for 30 min. After the reaction was completed, 10 μL of ADP-glo (promega) was added and mixed uniformly, and the plate was incubated at room temperature for 40 min. Then the ADP-glo was added again, mixed uniformly and reacted for 40 min.” left out
as §4, §5

2-((1R,5S,6S)-3-(7,7-difluoro-2-((S)-2-(trifluoromethyl)azetidin-1-yl)-6,7-dihydro-5H-cyclopenta[d]pyrimidin-4-yl)-3-azabicyclo[3.1.1]heptan-6-yl)acetic acid [Isomer 2 of compound 20]
F ([1]; i.g. 3 mg/kg): 87.2% | AUC0-t ([1]; plasma, i.g. 3 mg/kg): 4807 ng·h/mL | AUC0-t ([1]; plasma, i.v. 1 mg/kg): 1838 ng·h/mL | CL ([1]; plasma, i.v. 1 mg/kg): 8.84 mL/min/kg | Vdss ([1]; plasma, i.v. 1 mg/kg): 0.977 L/kg | IC50 (CYP2D6): > 50 µM | F ([2]; i.g. 5 mg/kg): 111% | AUC0-t ([2]; plasma, i.g. 5 mg/kg): 64058 ng·h/mL | AUC0-t ([2]; plasma, i.v. 1 mg/kg): 11592 ng·h/mL | CL ([2]; plasma, i.v. 1 mg/kg): 1.35 mL/min/kg | Vdss ([2]; plasma, i.v. 1 mg/kg): 0.568 L/kg | IC50 (CYP3A4): > 50 µM | EC50 (hKHK-C): 0.0498 µM

C[C@H]1CCN1c1nc(N2CCC(CC(=O)O)C2)c2c(c1C#N)C(F)(F)CC2 (single isomer, unassigned) [Isomer 1 of compound 8]
EC50 (hKHKa): 0.0597 µM | EC50 (hKHK-C): 0.0586 µM

C[C@H]1CCN1c1nc(N2C[C@H]3C[C@@H](C2)[C@@H]3CC(=O)O)c2c(n1)C(F)(F)CCC2 (single isomer, unassigned; isomer 2) [Isomer 2 of compound 3]
EC50 (mKHKc): 0.134 µM | EC50 (hKHKa): 0.0518 µM | EC50 (hKHK-C): 0.0374 µM | EC50 (rKHKc): 0.146 µM

C[C@H]1CCN1c1nc(N2C[C@H]3C[C@@H](C2)[C@@H]3CC(=O)O)c2c(n1)C(F)(F)CC2 (single isomer, unassigned; isomer 2) [Isomer 2 of compound 4]
EC50 (hKHK-C): 0.0194 µM

O=C(O)C[C@H]1[C@@H]2C[C@H]1CN(c1nc(N3CC[C@H]3C(F)F)nc3c1CCC3(F)F)C2 (single isomer, unassigned; isomer 2) [Isomer 2 of compound 19]
EC50 (hKHK-C): 0.0606 µM

C[C@H]1CCN1c1nc(N2CC(CC(=O)O)C2)c2c(c1C#N)C(F)(F)CC2 [Compound 7, (S)-2-(1-(4-cyano-5,5-difluoro-3-(2-methylazetidin-1-yl)-6,7-dihydro-5H-cyclopenta[c]pyridin-1-yl)azetidin-3-yl)acetic acid]
EC50 (hKHKa): 0.0352 µM | EC50 (hKHK-C): 0.0365 µM

[2H]C([2H])([2H])[C@H]1CCN1c1nc(N2C[C@H]3C[C@@H](C2)C3CC(=O)O)c2c(n1)C(F)(F)CC2 (stereo partly drawn) [Compound 16, 2-((1R,5S,6R)-3-(7,7-difluoro-2-((S)-2-(methyl-d3)azetidin-1-yl)-6,7-dihydro-5H-cyclopenta[d]pyrimidin-4-yl)-3-azabicyclo[3.1.1]heptan-6-yl)acetic acid]
EC50 (hKHK-C): 0.0377 µM

[2H]C([2H])([2H])[C@H]1CCN1c1nc(N2CC(CC(=O)O)C2)c2c(c1C#N)C(F)(F)CC2 [Compound 18, (S)-2-(1-(4-cyano-5,5-difluoro-3-(2-(methyl-d3)azetidin-1-yl)-6,7-dihydro-5H-cyclopenta[c]pyridin-1-yl)azetidin-3-yl)acetic acid]
EC50 (hKHK-C): 0.0527 µM
